What was measured:
[1] = absolute recovery over vacuum-assisted evaporative concentration; higher = better recovery; conditions: enrichment method: VEC
Outline: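 After spiking with standards before concentration, after concentration or not at all, at 1000 ng/L for wastewater or 200 ng/L for nanopure and surface water with class- and compound-specific adjustments, samples of 6 mL influent, 15 mL effluent and 60 mL surface or nanopure water were evaporated at 55 °C and 20 mbar to about 0.3 mL. They were brought to 0.4 mL, centrifuged, given internal standards and analysed by LC-HRMS/MS. Absolute recovery, (response ratio pre − unspiked)/(post − unspiked) × 100, used averages of ≥ 2 replicates.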

[2] = LC retention time (Atlantis T3, 5-95% MeOH gradient, 0.1% formic acid); higher = more retained / less polar
Outline: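 Retention times were recorded for reference standards on a polar reversed-phase C18 column. The standards were of purity ≥ 95%, and the Atlantis T3 column (3 × 150 mm, 3 μm) was run at 0.3 mL/min with a gradient from 5 to 95% methanol over 17.5 min, both water and methanol containing 0.1% formic acid. Detection used high-resolution tandem mass spectrometry on a QExactive Plus, with positive and negative electrospray in separate runs, and peaks were integrated in TraceFinder (5 ppm tolerance, at least three points per peak) before being checked by hand.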

[3] = absolute recovery over mixed-bed multilayer solid-phase extraction; higher = better recovery; conditions: enrichment method: SPE
Outline: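 Wastewater (100–250 mL, pH 6.5, glass-fibre filtered) and unfiltered nanopure water (1000 mL) were extracted on a three-layer mixed-bed cartridge, with standards spiked before extraction, after it, or not at all at 1000 ng/L and 200 ng/L respectively, apart from some classes. Internal standards were then added for liquid chromatography with high-resolution tandem mass spectrometry in both ionisation modes. Absolute recovery compares background-corrected response ratios of pre- and post-spiked samples across at least two replicates.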

| Structure (SMILES) | absolute recovery ([1]; wastewater effluent) | absolute recovery ([1]; wastewater influent) | LC retention time [2] | absolute recovery ([3]; nanopure water) | absolute recovery ([3]; surface water) | absolute recovery ([3]; wastewater effluent) | absolute recovery ([3]; wastewater influent) |
| --- | --- | --- | --- | --- | --- | --- | --- |
| CC(=O)N(CC(O)CO)c1c(I)c(C(=O)NCC(O)CO)c(I)c(C(=O)NCC(O)CO)c1I (stereo not drawn) [Iohexol] | 102% | 98.3% | 8.81 min | 68.2% | 73.1% | 66.4% | 56.8% |
| COC=C(C(=O)OC)c1ccccc1COc1cccc(C(F)(F)F)n1 [Picoxystrobin] | 94.2% | 121% | 20.3 min | 94.1% | 94.9% | 99.7% | 81.3% |
| O=[N+]([O-])N=C1NCCN1Cc1ccc(Cl)nc1 [Imidacloprid] | 103% | 98.6% | 13.4 min | 97.8% | 96.7% | 95.4% | 91.9% |
| O=C([O-])c1cn(C2CC2)c2cc(N3CC[NH2+]CC3)c(F)cc2c1=O [Ciprofloxacin] | 105% |  | 11.7 min | 77.2% | 73.9% | 72.6% | 73.8% |
| C[NH2+]C(C)C(=O)c1ccc(C)cc1 (stereo not drawn) [Mephedron (=4-Methylmethcathinon)] | 76.7% | 71.4% | 11.4 min | 62.3% | 66.2% | 62.8% | 72.7% |
| CN1COCN(Cc2cnc(Cl)s2)C1=N[N+](=O)[O-] [Thiamethoxam] | 100% | 105% | 12.2 min | 98.4% | 93.9% | 96.3% | 94.2% |
| CCCCCCCCCCCCCC[N+](C)(C)CCCCCCCCCCCCCC [Dimethylditetradecylammonium (=ATMAC-18)] | 119% | 4.7% | 21.6 min |  |  | 55.3% | 38.7% |
| CCOCCN(C(=O)CCl)C(=C(C)C)c1ccccc1 [Pethoxamid] | 87.2% | 92.5% | 20.3 min | 95.5% | 85.7% | 86.7% | 99.6% |
| CCC1OC(=O)C(C)C(OC2CC(C)(OC)C(O)C(C)O2)C(C)C(OC2OC(C)CC([NH2+]C)C2O)C(C)(O)CC(C)C[NH+](C)C(C)C(O)C1(C)O (stereo not drawn) [N-Desmethyl-Azithromycin] | 117% | 94.9% | 13.1 min | 104% | 98.1% | 98.7% | 121% |
| CC1(C)CON(Cc2ccccc2Cl)C1=O [Clomazon] | 80.3% | 78% | 19 min |  | 92.1% | 82.7% | 87.1% |
| CC12CC3CC(C)(C1)CC([NH3+])(C3)C2 [Memantine] | 100% | 114% | 14.9 min | 83.4% | 83.5% | 89.2% | 78% |
| CCC(=[NH+]OCC=CCl)C1=C([O-])CC(C2CCOCC2)CC1=O (stereo not drawn) [Tepraloxydim] | 114% | 102% | 19 min | 98.7% | 90.1% | 92.9% |  |
| CC12CCC(=O)C=C1CCC1C2C(O)CC2(C)C1CCC2(O)C(=O)CO (stereo not drawn) [Hydrocortison] | 102% | 57.5% | 18 min | 86.5% | 80.2% | 80.9% | 94% |
| O=C(NC(=O)c1c(F)cccc1F)Nc1ccc(Cl)cc1 [Diflubenzuron] | 112% | 147% | 20.5 min | 101% | 138% | 114% | 67.9% |

Now from value to compound:

| absolute recovery ([1]; wastewater effluent) | absolute recovery ([1]; wastewater influent) | LC retention time [2] | absolute recovery ([3]; nanopure water) | absolute recovery ([3]; surface water) | absolute recovery ([3]; wastewater effluent) | absolute recovery ([3]; wastewater influent) | Structure (SMILES) |
| --- | --- | --- | --- | --- | --- | --- | --- |
| 111% | 144% | 19 min | 74.1% | 27% | 36.7% | 44.8% | CCOc1ccc2ccccc2c1C(=O)NC1C(=O)N2C1SC(C)(C)C2C(=O)[O-] (stereo not drawn) [Nafcillin] |
| 93.2% | 86.2% | 18.4 min | 86.9% | 89.1% | 83.2% | 96.5% | CCN(CC)C(=O)c1cccc(C)c1 [N-N-diethyl-3-methylbenzamid (=DEET)] |
| 105% | 124% | 20.5 min | 102% | 104% | 92.4% | 134% | O=C1Nc2ccc(Cl)cc2C(C#CC2CC2)(C(F)(F)F)O1 (stereo not drawn) [Efavirenz] |
| 105% | 105% | 11.2 min | 99.2% | 95.3% | 93.2% | 93.4% | CC[N+]1([O-])CCCC1CNC(=O)c1cc(S(=O)(=O)CC)c(N)cc1OC (stereo not drawn) [Amisulpride-N-Oxide] |
| 60.8% | 65.4% | 15.2 min | 70.4% | 75.4% | 73.7% | 79.4% | COc1cccc2c1C(=O)c1c(O)c3c(c(O)c1C2=O)CC(O)(C(O)CO)CC3OC1CC([NH3+])C(O)C(C)O1 (stereo not drawn) [Doxorubicinol] |
| 104% | 99.2% | 17.6 min |  | 92.6% | 97.9% | 94.4% | O=C([O-])c1cc(Br)c([O-])c(Br)c1 [3-5-Dibromo-4-hydroxybenzoic-acid] |
| 105% | 108% | 19.8 min | 96.4% | 99% |  | 86.6% | COCC(C)N(C(=O)C(=O)[O-])c1c(C)csc1C (stereo not drawn) [Dimethenamid-OXA] |
| 84.4% | 62.4% | 24.6 min | 76.1% | 73.6% | 78% | 65% | CCCOc1nc2ccc(I)cc2c(=O)n1CCC [Proquinazid] |
| 61.8% | 63.2% | 22.2 min | 103% | 104% | 86.1% | 108% | CC1COC(=O)c2cc3c(cc21)C(C)(C)C(C)C3(C)C (stereo not drawn) [Galaxolidon] |
| 90.5% | 92.4% | 22 min | 63.9% | 98% | 75.8% | 73.4% | Cc1cccc(N(C)C(=S)Oc2ccc3ccccc3c2)c1 [Tolnaftat] |
| 110% | 99.1% | 21.3 min | 81.6% | 67.5% | 87.9% | 97.3% | CCc1cccc(C)c1N(C(=O)C(=O)[O-])C(C)COC (stereo not drawn) [Metolachlor-OXA] |

Source: the supplement of paper PMC6470124
